# Measurements reported in patent publication US8748398B2, “Stroke-targeting peptide and use thereof” (Kyungpook National University Industry-Academic Cooperation …, priority 2008, dated 2014).
# Where no end group is shown, it is not given here.
# Tests used:
# [1] = test system: ipsilateral (ischemic) hemisphere of a brain; test: In vivo screening of phage-displayed CX7C peptide library, frequency of selected clones; conditions: 30 phage clones randomly selected in second and third rounds, rat with occluded MCA
# ischemic stroke tissue [2] = test: Autoradiogram of absorption of 131I-labeled peptide in ischemic stroke tissue; assay type: in vivo, rat
# ischemic stroke tissue [3] = test: In vivo targeting of fluorescein-labeled peptide, fluorescence microscopy of frozen sections with TTC and TUNEL staining; set-up: species or system rat; conditions: for targeting to the contralateral tissue / targeting to the ipsilateral tissue: fluorescein peptide into left ventricle 24 hours after ischemic injury
# [4] = test system: β-tubulin-positive neuron cell and GFAP-positive astrocyte in the ischemic brain tissue; test: Immunofluorescence staining for the type of cells bound to the peptide (anti-tubulin, anti-GFAP); assay type: in vivo, rat; conditions: 24 hours after ischemic injury
# [5] = tail vein 24 hours after ischemic injury, 1-hour circulation
substance,measurement,setting,value
CRSAVAKNC (Stroke-targeting peptide 3),Frequency (%),[1],(17%)
same,Frequency (clones with the sequence / clones sequenced),[1],5/30
CKRGGATAC (Stroke-targeting peptide 2),Frequency (%),[1],(23%)
same,Frequency (clones with the sequence / clones sequenced),[1],7/30
^131I-CLEVSRKNC peptide: CLEVSRKNC peptide (SEQ ID NO: 1) labeled with radioisotope 131I (cysteine pairing not given here; also: 131I radiolabel),absorption in a general brain of a control group rat,ischemic stroke tissue [2]; 1-hour circulation,insufficient
same,absorption rate by optically stimulated luminescence,"ischemic stroke tissue [2]; 4 coronal sections, third day vs first and seventh day, P<0.01",very high absorption rate on the third day
same,time course of absorption in ischemic tissue after ischemic injury,"ischemic stroke tissue [2]; first, third and seventh day after ischemic injury",reached a peak on the third day
same,absorption in the contralateral region,ischemic stroke tissue [2]; [5],insufficient
same,absorption in the ipsilateral hemisphere,ischemic stroke tissue [2]; [5],observed in the ipsilateral hemisphere
CLEVSRKNC (Stroke-targeting peptide 1),targeting to the ischemic hemisphere,ischemic stroke tissue [3]; 2-hour circulation (data not noted),targeted to the ischemic hemisphere
same,"targeting to control group organs (spleen, liver, lung)",ischemic stroke tissue [3]; 15-minute circulation,little
same,region of the stroke tissue where targeting was observed,"ischemic stroke tissue [3]; 15-minute circulation, TTC staining",observed in a penumbra
same,binding to TUNEL-stained apoptotic cells in the penumbra,ischemic stroke tissue [3]; TUNEL staining of frozen sections,"most of the apoptotic cells stained with TUNEL, except for some of them, were bound"
same,targeting to the contralateral tissue,ischemic stroke tissue [3]; 15-minute circulation,not targeted to the contralateral tissue
same,targeting to the ipsilateral tissue,ischemic stroke tissue [3]; 15-minute circulation,targeted to the ipsilateral tissue
same,co-localisation with GFAP-positive astrocyte in the ischemic brain tissue,[4],did not correspond
same,co-localisation with β-tubulin-positive neuron cell in the ischemic brain tissue,[4],corresponded to the position of β-tubulin-positive neuron cell
same,targeting in a neuron cell and an astrocyte in the contralateral brain tissue,[4],not observed
same,Frequency (%),[1],(30%)
same,Frequency (clones with the sequence / clones sequenced),[1],9/30
CTKRNAPDC (Stroke-targeting peptide 4),Frequency (%),[1],(10%)
same,Frequency (clones with the sequence / clones sequenced),[1],3/30
"CNSREVLKC [CNSREVLKC peptide, reference compound]",targeting to the contralateral tissue,ischemic stroke tissue [3]; 15-minute circulation,not observed
same,targeting to the ipsilateral tissue,ischemic stroke tissue [3]; 15-minute circulation,not observed
